Assays:
[1] = test system: NK-YS (IL-2 2.5 ng/mL); assay: drug sensitivity score (DSS) (DSS units); higher = more sensitive; extreme values may be limits of the assay; conditions: 72 h
[2] = test system: normal primary NK cells, pool 3 (3 donors) (IL-2 2.5 ng/mL); assay: as above; conditions: 72 h
[3] = test system: NKL (IL-2 2.5 ng/mL); assay: as above; conditions: 72 h
[4] = test system: NK-92 (IL-2 2.5 ng/mL); assay: as above; conditions: 72 h
[5] = test system: normal primary NK cells, pool 1 (3 donors) (IL-2 2.5 ng/mL); assay: as above; conditions: 72 h
[6] = test system: normal primary NK cells, pool 1 (3 donors), resting (IL-2 0 ng/mL); assay: as above; conditions: 72 h
[7] = test system: normal primary NK cells, pool 2 (3 donors) (IL-2 2.5 ng/mL); assay: as above; conditions: 72 h
[8] = test system: IMC-1 (IL-2 20 ng/mL); assay: as above; conditions: 72 h
[9] = test system: YT (IL-2 2.5 ng/mL); assay: as above; conditions: 72 h
[10] = test system: KHYG-1 (IL-2 2.5 ng/mL); assay: as above; conditions: 72 h
[11] = test system: KAI3 (IL-2 2.5 ng/mL); assay: as above; conditions: 72 h
[12] = test system: DERL-7 (IL-2 2.5 ng/mL); assay: as above; conditions: 72 h
[13] = test system: SNK-6 (IL-2 2.5 ng/mL); assay: as above; conditions: 72 h
[14] = test system: NK-YS (IL-2 2.5 ng/mL); assay: percent inhibition of viability; higher = more inhibition; conditions: 72 h
[15] = test system: normal primary NK cells, pool 3 (3 donors) (IL-2 2.5 ng/mL); assay: as above; conditions: 72 h
[16] = test system: NKL (IL-2 2.5 ng/mL); assay: as above; conditions: 72 h
[17] = test system: NK-92 (IL-2 2.5 ng/mL); assay: as above; conditions: 72 h
[18] = test system: normal primary NK cells, pool 1 (3 donors) (IL-2 2.5 ng/mL); assay: as above; conditions: 72 h
[19] = test system: normal primary NK cells, pool 1 (3 donors), resting (IL-2 0 ng/mL); assay: as above; conditions: 72 h
[20] = test system: normal primary NK cells, pool 2 (3 donors) (IL-2 2.5 ng/mL); assay: as above; conditions: 72 h
[21] = test system: IMC-1 (IL-2 20 ng/mL); assay: as above; conditions: 72 h
[22] = test system: YT (IL-2 2.5 ng/mL); assay: as above; conditions: 72 h
[23] = test system: KHYG-1 (IL-2 2.5 ng/mL); assay: as above; conditions: 72 h
[24] = test system: KAI3 (IL-2 2.5 ng/mL); assay: as above; conditions: 72 h
[25] = test system: DERL-7 (IL-2 2.5 ng/mL); assay: as above; conditions: 72 h
[26] = test system: SNK-6 (IL-2 2.5 ng/mL); assay: as above; conditions: 72 h
[27] = test system: normal NK cells expanded with K562-aAPC; assay: drug sensitivity score (DSS) (DSS units); higher = more sensitive; extreme values may be limits of the assay; conditions: 72 h; IL-2 2.5 ng/mL
Method: (§1)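 Drug sensitivity and resistance testing on K562-aAPC-expanded normal NK cells: 5 concentrations (10-fold steps over a 10,000-fold range), 72 h at 37 °C, viability by CellTiter-Glo normalised to DMSO and benzethonium chloride controls; DSS from the fitted curve.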

[28] = test system: normal NK cells expanded with K562-aAPC; assay: percent inhibition of viability; higher = more inhibition; conditions: 72 h, IL-2 2.5 ng/mL
Method: as §1

CC1(C)CNc2cc(NC(=O)c3cccnc3NCc3ccncc3)ccc21 [Motesanib] (max concentration tested 10000 nM)
Conditions | drug sensitivity score
[1] | 0.73
[2] | 0
[3] | 3.62
[4] | 3.26
[5] | 0
[6] | 0
[7] | 0
[8] | 0.85
[9] | 0.65
[10] | 0
[11] | 1.11
[12] | 0
[13] | 0
[27] | 0.32

percent inhibition of viability [%]
Conditions | 1 nM | 10 nM | 100 nM | 1000 nM | 10000 nM
[14] | -4.47 | -3.14 | -5.16 | 6.4 | 15
[15] | -2.89 | 5.36 | 3.67 | 3.63 | 9.45
[16] | -8.65 | -10.7 | -6.54 | 20 | 30.4
[17] | 5.17 | 2.14 | 10.4 | 20.8 | 17.9
[18] | -3.57 | 3.71 | 11 | 2.82 | -3.82
[19] | 4.22 | 16.2 | 15.4 | 16.6 | 11.9
[20] | -7.61 | 1.62 | 3.62 | 1.34 | 2.65
[21] | -10.7 | -4.04 | -2.1 | 5 | 16.6
[22] | -3.76 | -2.12 | -1.24 | 6.34 | 14.4
[23] | -8.69 | -5.06 | -3.55 | 8.47 | 9.44
[24] | -8.29 | -1.63 | -3.65 | 2.07 | 23.2
[25] | 8.61 | 2.19 | 10.7 | -4.45 | -7.84
[26] | -15.2 | -22.6 | -22.4 | -32.4 | -29.5
[28] | -5.87 | -5.96 | -6.1 | 8.26 | 11.9

CCCCc1nc2cc(/C=C/C(=O)NO)ccc2n1CCN(CC)CC [Pracinostat] (max concentration tested 10000 nM)
Conditions | drug sensitivity score
[1] | 20.3
[2] | 19.9
[3] | 24.6
[4] | 23.6
[5] | 21.1
[6] | 22.5
[7] | 20.6
[8] | 19.6
[9] | 20.1
[10] | 22.1
[11] | 25.4
[12] | 21.4
[13] | 20.1
[27] | 21.7

percent inhibition of viability [%]
Conditions | 1 nM | 10 nM | 100 nM | 1000 nM | 10000 nM
[14] | -2.5 | 3.97 | 26.5 | 93.4 | 106
[15] | -9.56 | -4.29 | 13.1 | 97.8 | 98.9
[16] | -9.49 | 12.2 | 57 | 92.3 | 105
[17] | 0.01 | -2.17 | 42.9 | 103 | 107
[18] | -0.69 | -4.78 | 22.1 | 96.7 | 97.5
[19] | 0.06 | -6.1 | 49.2 | 86.2 | 90.8
[20] | -8.41 | -3.58 | 22.6 | 94.5 | 94.8
[21] | -2.79 | 2.79 | 10 | 100 | 101
[22] | 2.35 | -0.3 | 12.7 | 100 | 105
[23] | 0.14 | -0.26 | 26.9 | 103 | 107
[24] | -0.25 | 10.9 | 59.8 | 100 | 106
[25] | 1.33 | -8.53 | 21.4 | 100 | 100
[26] | -6.98 | 1.26 | 17.8 | 96.5 | 100
[28] | 1.37 | 8.83 | 23.6 | 100 | 101

O=C(Nc1ccc(OC(F)(F)F)cc1)c1sccc1NCc1ccnc2ccccc12 [OSI-930] (max concentration tested 2500 nM)
Conditions | drug sensitivity score
[1] | 0
[2] | 0
[3] | 0
[4] | 1.27
[5] | 0
[6] | 0.24
[7] | 0
[8] | 0.67
[9] | 0
[10] | 0
[11] | 0
[12] | 0.66
[13] | 8.62
[27] | 0

percent inhibition of viability [%]
Conditions | 0.25 nM | 2.5 nM | 25 nM | 250 nM | 2500 nM
[14] | -1.68 | -3.28 | -0.75 | 3.05 | 10.1
[15] | -8.79 | -12.1 | -5.29 | 4.46 | 8.54
[16] | -6.01 | -14.6 | -5.82 | -10.2 | 7.79
[17] | 3.89 | -3.38 | -8.56 | 11.8 | 16.6
[18] | -1.64 | 6.46 | -0.65 | 1.58 | 5.43
[19] | -4.47 | -4.58 | -9.07 | 4.32 | 12.1
[20] | -8.8 | -7.72 | 0 | 7.78 | 8.04
[21] | 0.84 | -1.87 | 4.98 | 6.89 | 18.2
[22] | -0.61 | -3.29 | 0.94 | 1 | 10.3
[23] | 0.6 | 1.74 | 3.75 | 5.69 | 7.1
[24] | 3.63 | -6.37 | -2.54 | -7.75 | 4.42
[25] | -3.26 | 4.29 | 2.35 | 12.1 | 10.2
[26] | 2.35 | 8.65 | 27.3 | 16.9 | 25.4
[28] | 0.01 | -3.72 | -1.42 | 0.82 | 7.54

Source: the supplement of paper PMC5908809
